Experimental findings from US20250263404A1, “AMINOPYRIDINES AS ACTIVATORS OF PI3 KINASE” (UCL Business Ltd, priority 2021, published 2025) are described below.

pEC50: −log10 of the molar value.

The target in one assay is T1, p110α/p85α (Homo sapiens, UniProt P42336).
T1 construct: Full-length p110α was expressed in a complex with full-length p85α (for biochemistry and HDX-MS); 6xHis followed by TEV protease site (N); made in house; host or cells: Spodoptera frugiperda Sf9 (baculovirus co-infection; plasmids OP831 and OP809)
The experiment in a line: HDX-MS of full-length p110α/p85α. The note with it: wild-type p110α/p85α. The text has this: The inventors used hydrogen-deuterium exchange mass spectrometry (HDX-MS) which allows the investigation of compound binding sites and conformational changes using soluble, native proteins, and which has been key to unravel the molecular mechanisms of physiological activation of class IA PI3Ks. Class IA PI3K activation occurs through de-inhibition of the auto-inhibited p85/p110 complex, via the release of inhibitory interactions between p85 and p110, upon binding of the complex to bis-phosphorylated motifs in membrane-resident receptors or cytosolic adaptors. […]
In total, three biological replicates, i.e., three separate protein preparations, each with exchange experiments were carried out in triplicate were conducted. […] A “blank” sample of protein dilution buffer with quench was run between samples, and carry-over of peptides was routinely monitored. […] Data was analysed using Protein Lynx Global Server (Waters) and DynamX (Waters). […] Data quality, experiment design, and reporting of data meets the criteria as determined by the HDX-MS community (Masson, G. R. et al. Nat Methods 16, 595-602 (2019)). […]

The subject of a further assay is PIP3 levels in MEFs. The experiment in a line: PIP3 measurement by mass spectrometry in MEFs. The assay is classed as cell-based, mouse. The method, then:
FIG. 21. a, MEFs were stimulated for the indicated time points with 1938 (5 μM) or for 2 min with PDGF (20 ng/ml) or insulin (100 nM), followed by lipid extraction and PIP3 measurement by mass spectrometry. b, MEFs were stimulated for 2 min with increasing doses of 1938 or PDGF, followed by lipid extraction and PIP3 measurement by mass spectrometry. c, A549 cells were stimulated for 2 min with increasing doses of 1938 or insulin, or 10 ng/ml PDGF, followed by lipid extraction and PIP3 measurement by mass spectrometry.
Class I PI3Ks phosphorylate the PtdIns(4,5)P2 lipid in the plasma membrane to generate PtdIns(3,4,5)P3 (or PIP3), which can be converted to PtdIns(3,4)P2 by the action of 5-phosphatases. Treatment of MEFs (Mouse Embryonic Fibroblasts) with 1938 very rapidly (within 30 sec) led to increased PIP3 levels, as assessed by mass spectrometry, maxing at 5 min and maintained at this maximum level for up to 40 min (FIG. 21a). […] The observation of different levels of PIP3 induced by these growth factors is in line with the notion that PI3Kα is the sole mediator of PIP3 production downstream of insulin. This contrasts with PDGF, which activates both PI3Kα and PI3Kβ, with the latter PI3K isoform contributing substantially to acute PDGF-stimulated PIP3 generation in MEFs, correlating with the higher PIP3 levels induced by this agonist compared to insulin and 1938 (FIG. 21a). In the same experiment as in FIG. 21a, clear PI(3,4)P2 signal was detected in MEFs upon PDGF stimulation but not with 1938 (at 5 μM). This is consistent with a higher threshold for detection of PI(3,4)P2 compared to PIP3 by mass spectrometry (due primarily to background contamination, as discussed by Malek et al.), together with the relatively lower PI3K activation by 1938 compared to a high dose of PDGF, as is also illustrated by the experiments shown below.
These maximal 1938-induced PIP3 levels are below those required to give rise to sufficient PI(3,4)P2 to be detectable by mass spectrometry, a conclusion also supported by the observation that substantial levels of PIP3 induced by lower doses of PDGF (e.g. 0.5 ng/ml) were also not sufficient to give rise to levels of PI(3,4)P2 detectable by mass. […] A strong PIP3 response was also observed with insulin in these cells, with no PIP3 induced by PDGF, in line with the absence of this receptor in epithelial cells, including in A549.

T1 sequence (P42336 whole entry): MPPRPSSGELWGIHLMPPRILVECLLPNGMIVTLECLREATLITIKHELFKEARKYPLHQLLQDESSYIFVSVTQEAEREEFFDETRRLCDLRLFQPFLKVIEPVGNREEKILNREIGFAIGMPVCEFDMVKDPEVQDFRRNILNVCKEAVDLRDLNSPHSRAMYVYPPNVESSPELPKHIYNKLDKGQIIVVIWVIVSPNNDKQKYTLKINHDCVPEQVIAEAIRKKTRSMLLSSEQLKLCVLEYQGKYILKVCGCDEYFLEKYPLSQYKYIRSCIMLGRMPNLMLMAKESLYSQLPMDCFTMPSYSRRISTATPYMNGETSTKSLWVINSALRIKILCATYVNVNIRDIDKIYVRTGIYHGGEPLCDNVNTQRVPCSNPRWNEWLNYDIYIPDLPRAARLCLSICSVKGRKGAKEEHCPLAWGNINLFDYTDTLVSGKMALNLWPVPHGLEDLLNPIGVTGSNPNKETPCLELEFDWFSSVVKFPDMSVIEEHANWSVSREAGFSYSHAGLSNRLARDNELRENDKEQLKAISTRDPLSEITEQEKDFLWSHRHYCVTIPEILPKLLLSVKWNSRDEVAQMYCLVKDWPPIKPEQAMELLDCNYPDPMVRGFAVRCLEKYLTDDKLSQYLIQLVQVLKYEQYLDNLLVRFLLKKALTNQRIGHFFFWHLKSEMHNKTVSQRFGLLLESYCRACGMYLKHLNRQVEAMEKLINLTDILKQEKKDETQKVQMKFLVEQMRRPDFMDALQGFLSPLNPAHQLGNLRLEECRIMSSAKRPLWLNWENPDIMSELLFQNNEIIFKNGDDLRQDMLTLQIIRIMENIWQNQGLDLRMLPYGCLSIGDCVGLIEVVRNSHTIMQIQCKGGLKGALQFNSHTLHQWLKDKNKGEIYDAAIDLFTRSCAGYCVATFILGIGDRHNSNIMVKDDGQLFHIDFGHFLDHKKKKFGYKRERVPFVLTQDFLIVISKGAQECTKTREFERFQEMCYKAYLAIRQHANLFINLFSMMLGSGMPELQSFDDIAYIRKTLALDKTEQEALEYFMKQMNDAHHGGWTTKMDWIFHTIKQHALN
T1 sequence (P27986 whole entry partner): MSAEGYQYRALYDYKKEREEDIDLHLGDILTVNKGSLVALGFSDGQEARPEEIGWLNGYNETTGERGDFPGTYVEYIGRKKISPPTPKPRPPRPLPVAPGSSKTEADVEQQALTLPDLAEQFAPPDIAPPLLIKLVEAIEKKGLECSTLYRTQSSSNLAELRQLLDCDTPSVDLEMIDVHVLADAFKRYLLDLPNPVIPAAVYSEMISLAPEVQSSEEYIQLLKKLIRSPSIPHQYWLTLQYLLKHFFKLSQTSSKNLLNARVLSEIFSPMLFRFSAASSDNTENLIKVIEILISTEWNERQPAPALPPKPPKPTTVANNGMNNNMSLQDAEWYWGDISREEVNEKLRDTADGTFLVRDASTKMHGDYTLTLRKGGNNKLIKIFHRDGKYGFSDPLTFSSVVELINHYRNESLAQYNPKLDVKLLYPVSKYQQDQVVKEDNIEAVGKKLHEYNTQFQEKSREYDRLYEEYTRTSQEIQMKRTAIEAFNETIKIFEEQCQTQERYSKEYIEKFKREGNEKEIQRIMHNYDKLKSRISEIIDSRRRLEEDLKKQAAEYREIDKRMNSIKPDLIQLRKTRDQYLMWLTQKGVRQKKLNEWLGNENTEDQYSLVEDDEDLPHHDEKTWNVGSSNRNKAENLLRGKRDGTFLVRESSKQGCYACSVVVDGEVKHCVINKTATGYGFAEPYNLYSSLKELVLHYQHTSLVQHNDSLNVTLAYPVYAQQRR

For the compound `CCN1CCN(c2ccc(Nc3cc(Nc4cccc5c4N(C(C)=O)CC5)ccn3)cc2)CC1` [Example 1938], at p110α/p85α, the “Movement of the adapter-binding domain” value was “−/?”. For the same compound, the “concentration at which PIP3 induction plateaus” value in the assay with PIP3 levels in MEFs (2 min) is “around 10 μM”. In the assay with PIP3 levels in MEFs (1938 5 μM), the “duration of maximum PIP3 level” value is on record as “up to 40 min”, the “time of maximum PIP3 level” value is recorded as 5 min and the “time to increased PIP3 levels” value was at most 30 s. The pEC50 in the assay on PIP3 levels in MEFs (Mus musculus, 2 min, fixed 2 min time point, read-out: EC50 of PIP3 induction) is about 5.30.
